Experimental findings from patent US6479466B1, “Compositions for treating viral infections, and methods therefor” (University of Maryland, priority 1999, dated 2002) are described below.

Data set [1] deals with clinical isolates of HIV-1 (EJC-1 to EJC-4). The data set is described as follows: p24 antigen production in activated PBMCs infected with clinical isolates. The class given is cell-based. Here is the method:
For infection studies involving PBMCs, cells were stimulated with 2.5 or 10 μg/ml phytohemagglutinin (PHA; Boehringer Mannheim, Indianapolis, Ind.) for 3 days. Stimulated PBMCs were infected by incubation with virus at a multiplicity of infection of 1000 TCID50/10^6 PBMC for 2 hours. PBMCs were then washed three times with PBS and cultured in 5% CO2 at 37° C., in RPMI/10% FBS supplemented with 10 units/ml IL-2 (Boehringer Mannheim) and drugs as appropriate. PBMCs were seeded in 96-well flat-bottom plates at a density of 2×10^5 PBMCs/200 μl. Following 3 days of culture half of the medium was replaced with fresh medium containing IL-2 and drugs. After 7 days of culture, HIV-1 p24 antigen production in the culture supernatant was assayed by ELISA (Coulter, Hialeah, Fla.). The concentration of nucleoside analog, alone and in combination with resveratrol, that reduced the p24 antigen value of the untreated control by 90% (IC90) was calculated by using nonparametric regression analysis. The analysis used the median-effect equation, Fa=1/[1+(Dm/D)]^m, where D is the dose, Fa is the fraction affected, and Dm is the dose required to produce the median effect.
The increase of ddI-antiviral activity by RV was next evaluated in a panel of clinical isolates of HIV-1. […]

Data set [2] relates to HIV-174V isolate (L74V mutation in the RT gene). Put plainly: p24 antigen in activated PBMCs infected with ddI-resistant isolate 74V. It is filed as cell-based, HIV-1. An excerpt:
(§1) The present example provides data to test whether viral isolates carrying mutations in the RT gene that confer resistance to ddI could be rendered sensitive when the nucleoside analogue was combined with RV. Viruses containing one or more of the mutations associated with resistance to ddI, e.g., an isolate carrying the L74V mutation which confers primary resistance to ddI, a virus isolate carrying 4 different resistance-associated mutations in the RT gene (HIV-1 RTMDR1) were used to infect PHA-stimulated PBMCs. The HIV-174V isolate, and the HIV-1RTMDR1 isolate (containing the M41L, L74V, V106A and T215Y mutations, conferring resistance to AZT, ddI, nevirapine and other non-nucleotide RT inhibitors) were obtained from Dr. Larder at the National Institutes of Health AIDS Research and Reference Reagent Program (Catalog #2528 and #2529, respectively, Rockville, Md.). In addition, viruses having mutations 65R, 74V, 184V in the RT gene, and a virus containing the multiple-nucleoside-resistance mutation 151M were assayed in infectivity assays using RV plus ddI. The mutations present in the RT gene of each virus as well as their susceptibility to ddI are as follows: HIV-174V(ddIIC90=2.6 μM); HIV-141L, 74V, 106A, 215Y (ddIIC90=4.5 μM); HIV-165R, 74V, 184V (ddIIC90>20 μM) and HIV-162V, 751, 77L, 151M (ddIIC90>20 μM). […]

In data set [3] the test system is HIV-1RTMDR1 isolate (M41L, L74V, V106A and T215Y). Put plainly: p24 antigen in activated PBMCs infected with isolate RTMDR1. It is filed as cell-based.
Description: as §1

Data set [4] has as its system PHA-activated PBMCs. The data set is described as follows: Cell viability by trypan blue staining in PHA-activated PBMCs. It is filed as cell-based, human. As to the method:
The effect of RV and […] on PBMC proliferation at the concentrations shown to enhance the anti-HIV effect of ddI were examined. Cellular proliferation in culture in the presence or absence of drugs was measured by commercial MTT assay, according to the manufacturer's instructions (Boehringer Mannheim). Cell viability was determined by trypan blue staining.
In a separate study designed to assess cell viability by trypan blue staining, PHA-activated PBMCs were cultured for 7 days in the presence of IL-2, 2 μM ddI, plus varying concentrations of RV. When RV was used at 25 μM, over 60% of cells became trypan blue stained, therefore indicating cell death. In the absence of RV or when RV was used at 5 or 10 μM, values of more than 95% cell viability were obtained.

Data set [5] has as its system PHA-activated PBMCs. The data set is described as follows: 3H-thymidine incorporation (DNA synthesis) assay in proliferating PBMCs. The class given is cell-based, human. To be noted: RV 10 μM; day 2. In general terms: Uptake of a labelled nucleoside into DNA is a usual measure of proliferation.
Description: For example, a thymidine incorporation assay using PBMC's may be carried out as follows. PBMC's are suspended, then 0.1 ml (100,000) of cells are added to each designated well of a 96-well plate. The plates are placed into a 37° C., 5% CO2, 95% humid incubator for the predetermined incubation periods—normally 2 and 5 days. At the end of the incubation period, and at a standard time prior to harvesting the plate (6-18 hours), 1.0-1.5 μCi (20 μl of 50-75 mCi/ml in complete medium) of [^3H]-labeled methyl thymidine is added to each well of the assay. The plates are then incubated for the remaining 6-18 hours. At the end of the [^3H]-thymidine pulse, the plates are harvested onto filter paper using a semi-automated multi-well harvester. The filter paper containing bound DNA may be dried using either ethanol or by moderate microwave heating. The filter paper samples are counted in a scintillation counter using standard procedures.
Proliferating PBMCs were cultured in the presence of RV or HU for 5 days. On day 2 and 5 an MTT assay and a ^3H-thymidine incorporation assay were performed.
Where [6] appears, read: Human immunodeficiency virus 1, PBMC, read-out: ddI IC90.

In general, IC90 refers to the concentration needed for an effect of 90%. Turning to `OC[C@@H]1CC[C@H](n2cnc3c(O)ncnc32)O1` [ddI, 2′,3′-dideoxyinosine], in data set [1] (1 μM ddI plus 5 μM RV, depending on the clinical isolate), the “enhancement of antiviral activity of ddI” value is reported as 18-185 fold. For the same molecule, in data set [1] (1 μM ddI plus 10 μM RV), the “enhancement of ddI activity” value was 88-1200 fold. Also, the “suppression of viral replication” value in data set [2] (2 μM ddI alone) was 28%; in data set [3] (2 μM ddI alone), 34%. The IC90 in data set [2] (setting [6]) was determined as 2.6 µM; in data set [3] (setting [6]), 4.5 µM.

With `Oc1ccc(/C=C/c2cc(O)cc(O)c2)cc1` [RV, trans-3, 4′, 5-trihydroxystilbene], the toxicity to cells entry with PHA-activated PBMCs [4] (RV 10 μM) is given as “not toxic”. In addition, the “trypan blue stained cells (cell death)” value in the data set with PHA-activated PBMCs [4] (RV 25 μM, 7 days, with IL-2 and 2 μM ddI) is listed as “over 60%”. Also, the cell viability entry with PHA-activated PBMCs [4] (RV 5 or 10 μM, 7 days, with IL-2 and 2 μM ddI) is “more than 95%”. For the same molecule, in the data set with PHA-activated PBMCs [5], the “3H-thymidine incorporation (DNA synthesis)” value is listed as “higher amounts of ^3H-thymidine incorporation than the untreated control”.
